Data: US12508313B2, “Quinoline derivative-containing pharmaceutical composition” (Eisai R&D Management Co., Ltd., priority 2009, dated 2025)

Experiment: Storage stability of capsules, degradants determined by high-performance liquid chromatography
Format: physicochemical
Conditions: Initial (before storage); HPLC
Experimental: The capsules in Examples 16 to 17 and Comparative Example 6 were stored for 1 week in an open system under an environment at a temperature of 60° C. and a relative humidity of 75%, followed by determining the production of the degradants with high-performance liquid chromatography. In the capsule formulation in Comparative Example 6, in which neither calcium carbonate nor magnesium carbonate was mixed, an amount of the degradants was increased. In contrast, in the capsules in Examples 16 to 17, in which calcium carbonate or magnesium carbonate was mixed, no increase in amount of the degradants was observed (Table 8).

Quantitated compound A (%): 98.38%
SMILES: COc1cc2nccc(Oc3ccc(NC(=O)NC4CC4)c(Cl)c3)c2cc1C(N)=O.CS(=O)(=O)O [Compound A, 4-(3-chloro-4-(cyclopropylaminocarbonyl)aminophenoxy)-7-methoxy-6-quinolinecarboxamide methanesulfonate]
